Data on one substance can be found in patent publication US20240093034A1, “FLUORESCENT DYES” (EXOPHARM LIMITED, priority 2020, published 2024).

The test relates to MSC-EVs. As to the kind of experiment: Dye labelling of MSC-EV preparations analysed by imaging flow cytometry (IFCM). On the procedure:
MSC-EVs were prepared form human platelet lysate containing MSC-conditioned media by polyethylene glycol 6000 precipitation followed by ultracentrifugation, as described previously (Borger, V. et al, 2020, Scaled Isolation of Mesenchymal Stem/Stromal Cell-Derived Extracellular Vesicles. Curr Protoc Stem Cell Biol 55, e128; Kordelas et al., 2014, MSC-derived exosomes: a novel tool to treat therapy-refractory graft-versus-host disease. Leukemia 28, 970-973; Ludwig et al., 2018, Precipitation with polyethylene glycol followed by washing and pelleting by ultracentrifugation enriches extracellular vesicles from tissue culture supernatants in small and large scales. J Extracell Vesicles 7, 1528109). Conditioned media were harvested every 48 h. Obtained MSC-EV preparations were diluted in NaCl-HEPES buffer (Sigma-Aldrich, Taufkirchen, Germany) such that 1 mL of final samples contained the preparation yield of the conditioned media of approximately 4.0×10^7 cells.
The staining with CFSE (Thermo Fisher Scientific, Darmstadt, Germany) was based on the manufacturer's protocol. Slight modifications were required to reduce the signal from unbound CFSE. Briefly, the CFSE stock solution was diluted to a working solution of 10 μM CFSE. The solution was centrifuged three times for 10 min at 17,000 × g. Subsequently, 25 μL of MSC-EV preparations, corresponding to the amount of EVs derived from 1×10^6 MSCs, were incubated with the centrifuged CFSE solution for 20 min at 37° C. The sample was diluted 1:20 to a final volume of 1 mL prior to analysis.
The staining of MSC-EV preparations with Calcein AM followed the manufacturer's instructions. Briefly, 25 μL of MSC-EV preparations were incubated with 25 μL of a 20 μM solution of Calcein AM (Thermo Fisher Scientific) for 40 min at 37° C. The sample was diluted 1:20 to a final volume of 1 mL to reduce background noise, avoiding the requirement of a washing step.
The staining of MSC-EV preparations with BODIPY-TR-Ceramide followed the manufacturer's instructions. Briefly, 25 μL of the MSC-EV preparation, corresponding to EVs purified from […], were incubated with 25 μL of a 20 μM solution of BODIPY TR Ceramide (Thermo Fisher Scientific) for 20 min at 37° C. 450 μL of 0.9% NaCl with 10mM HEPES (0.9% NaCl, Melsungen, B. Braun; HEPES, Thermo Fisher Scientific) buffer was added and the EVs were washed by using a Centrifugal Concentrator (Vivaspin 500; Sartorius, Gottingen, Germany). The retentate was adjusted to 500 μL prior to analysis.
The staining of MSC-EV preparations with PKH67 followed the manufacturer's instructions for labeling EVs (Thermo Fisher Scientific). Briefly, using 200 μL of given MSC-EV preparations, corresponding to EVs purified from 8×10^6 cells, the solution was adjusted with Diluent C to a final volume of 1 mL. […]
In general terms: A flow cytometer gives signals particle by particle.

Consider Calcein AM [reference compound], for which the “labelling of sEVs in MSC-EV preparations (conclusion)” value (IFCM, with anti-CD9, anti-CD63, anti-CD81 counterstaining where done) is on record as “do not Label”. The “labelled objects in MSC-EV preparations (FIG. 8)” value (dye + MSC-EVs) is given as “failed to label any detectable objects”.
